Test results as given in US20250213555A1, “SUBSTITUTED TETRAHYDROFURAN ANALOGS AS MODULATORS OF SODIUM CHANNELS” (VERTEX PHARMACEUTICALS INCORPORATED, priority 2021, published 2025).

These compounds were tested against human Nav 1.8 (Homo sapiens, UniProt Q9Y5Y9) (assay: E-VIPR assay detecting and measuring Nav inhibition properties). Settings: HEK cells expressing a truncated form of human Nav 1.8; compound numbers without "*" (not marked as run in the presence of human serum); read-out: measured IC50 value in the E-VIPR Assay.
Assay type: cell-based
Outline: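 Nav inhibition was read by E-VIPR: cells were electrically stimulated while coumarin/oxonol FRET emissions were recorded. Cells were HEK expressing a truncated human Nav 1.8 and co-transduced with KIR2.1, and were assayed in 25% final human serum.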

Chain of human Nav 1.8 (Q9Y5Y9 126-399 limits assumed): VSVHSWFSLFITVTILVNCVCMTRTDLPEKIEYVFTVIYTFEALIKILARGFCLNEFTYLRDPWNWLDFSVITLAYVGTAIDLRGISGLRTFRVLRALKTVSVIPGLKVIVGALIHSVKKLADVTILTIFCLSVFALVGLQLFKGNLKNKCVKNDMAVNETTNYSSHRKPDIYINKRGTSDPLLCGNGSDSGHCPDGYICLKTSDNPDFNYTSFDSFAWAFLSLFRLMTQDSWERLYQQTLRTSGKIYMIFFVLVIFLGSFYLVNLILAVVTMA
Chain of human Nav 1.8 (Q9Y5Y9 660-890 limits assumed): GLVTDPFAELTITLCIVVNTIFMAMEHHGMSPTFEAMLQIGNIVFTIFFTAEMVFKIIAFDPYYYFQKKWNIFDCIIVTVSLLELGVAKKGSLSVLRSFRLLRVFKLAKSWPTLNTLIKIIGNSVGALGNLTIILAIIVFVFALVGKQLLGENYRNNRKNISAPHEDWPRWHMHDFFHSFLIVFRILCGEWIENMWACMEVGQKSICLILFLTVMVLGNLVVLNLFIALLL
Chain of human Nav 1.8 (Q9Y5Y9 1148-1722 limits assumed): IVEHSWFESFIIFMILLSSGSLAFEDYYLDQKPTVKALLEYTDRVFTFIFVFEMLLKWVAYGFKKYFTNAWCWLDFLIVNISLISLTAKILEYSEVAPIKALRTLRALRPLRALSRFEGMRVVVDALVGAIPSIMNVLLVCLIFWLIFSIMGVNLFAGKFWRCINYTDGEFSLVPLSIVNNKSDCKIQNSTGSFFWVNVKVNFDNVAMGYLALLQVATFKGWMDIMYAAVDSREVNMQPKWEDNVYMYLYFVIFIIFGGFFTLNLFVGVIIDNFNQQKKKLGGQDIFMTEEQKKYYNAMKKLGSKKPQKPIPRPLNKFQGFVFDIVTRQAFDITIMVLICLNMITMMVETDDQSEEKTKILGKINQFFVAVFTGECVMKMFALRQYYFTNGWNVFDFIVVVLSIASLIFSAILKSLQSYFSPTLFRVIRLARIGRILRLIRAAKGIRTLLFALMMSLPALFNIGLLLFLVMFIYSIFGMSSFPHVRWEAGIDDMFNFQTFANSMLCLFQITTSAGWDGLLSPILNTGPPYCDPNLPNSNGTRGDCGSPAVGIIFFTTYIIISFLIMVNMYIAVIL

IC50 [nM]	SMILES
100 to 1000	C[C@H]1[C@@H](c2ccc(C(F)F)nc2OCCO)[C@H](C(=O)Nc2ccnc(C(N)=O)c2)O[C@@]1(C)C(F)(F)F [Compound 208, 4-((2R,3S,4S,5R)-3-(6-(difluoromethyl)-2-(2-hydroxyethoxy)pyridin-3-yl)-4,5-dimethyl-5-(trifluoromethyl)tetrahydrofuran-2-carboxamido) picolinamide]
< 10	C[C@H]1[C@@H](c2ccc(F)c(F)c2COC2COC2)[C@H](C(=O)Nc2ccnc(C(N)=O)c2)O[C@@]1(C)C(F)(F)F [Compound 211, 4-((2R,3S,4S,5R)-3-(3,4-difluoro-2-((oxetan-3-yloxy)methyl)phenyl)-4,5-dimethyl-5-(trifluoromethyl)tetrahydrofuran-2-carboxamido) picolinamide]
10 to 100	COc1c([C@H]2[C@H](C(=O)Nc3ccnc(C(=O)O)c3)O[C@@](C)(C(F)(F)F)[C@H]2C)ccc(F)c1F [Compound 214, 4-((2R,3S,4S,5R)-3-(3,4-difluoro-2-methoxyphenyl)-4,5-dimethyl-5-(trifluoromethyl)tetrahydrofuran-2-carboxamido)picolinic acid]
< 10	COc1c([C@H]2[C@H](C(=O)Nc3ccnc(C(=O)N4CC5(CCN5)C4)c3)O[C@@](C)(C(F)(F)F)[C@H]2C)ccc(F)c1F [Compound 215, (2R,3S,4S,5R)—N-(2-(1,6-diazaspiro[3.3]heptane-6-carbonyl)pyridin-4-yl)-3-(3,4-difluoro-2-methoxyphenyl)-4,5-dimethyl-5-(trifluoromethyl)tetrahydrofuran-2-carboxamide]
< 10	COc1c([C@H]2[C@H](C(=O)Nc3ccnc(C(=O)N4CC5(CCN5C)C4)c3)O[C@@](C)(C(F)(F)F)[C@H]2C)ccc(F)c1F [Compound 216, (2R,3S,4S,5R)-3-(3,4-difluoro-2-methoxyphenyl)-4,5-dimethyl-N-(2-(1-methyl-1,6-diazaspiro[3.3]heptane-6-carbonyl)pyridin-4-yl)-5-(trifluoromethyl)tetrahydrofuran-2-carboxamide]
< 10	COc1c([C@H]2[C@H](C(=O)Nc3ccnc(C(=O)N(C)O)c3)O[C@@](C)(C(F)(F)F)[C@H]2C)ccc(F)c1F [Compound 217, 4-((2R,3S,4S,5R)-3-(3,4-difluoro-2-methoxyphenyl)-4,5-dimethyl-5-(trifluoromethyl)tetrahydrofuran-2-carboxamido)-N-hydroxy-N-methylpicolinamide]
< 10	COc1c([C@H]2[C@H](C(=O)Nc3ccnc(C(=O)N4CC[C@H](O)C4)c3)O[C@@](C)(C(F)(F)F)[C@H]2C)ccc(F)c1F [Compound 219, (2R,3S,4S,5R)-3-(3,4-difluoro-2-methoxyphenyl)-N-(2-((S)-3-hydroxypyrrolidine-1-carbonyl)pyridin-4-yl)-4,5-dimethyl-5-(trifluoromethyl)tetrahydrofuran-2-carboxamide]
< 10	COc1c([C@H]2[C@H](C(=O)Nc3ccnc(C(=O)N4CC[C@@H](O)C4)c3)O[C@@](C)(C(F)(F)F)[C@H]2C)ccc(F)c1F [Compound 220, (2R,3S,4S,5R)-3-(3,4-difluoro-2-methoxyphenyl)-N-(2-((R)-3-hydroxypyrrolidine-1-carbonyl)pyridin-4-yl)-4,5-dimethyl-5-(trifluoromethyl)tetrahydrofuran-2-carboxamide]
< 10	COc1c([C@H]2[C@H](C(=O)Nc3ccnc(C(=O)NCCO)c3)O[C@@](C)(C(F)(F)F)[C@H]2C)ccc(F)c1F [Compound 221, 4-((2R,3S,4S,5R)-3-(3,4-difluoro-2-methoxyphenyl)-4,5-dimethyl-5-(trifluoromethyl)tetrahydrofuran-2-carboxamido)-N-(2-hydroxyethyl)picolinamide]
< 10	COc1c([C@H]2[C@H](C(=O)Nc3ccnc(C(=O)N4CCNCC4)c3)O[C@@](C)(C(F)(F)F)[C@H]2C)ccc(F)c1F [Compound 224, (2R,3S,4S,5R)-3-(3,4-difluoro-2-methoxyphenyl)-4,5-dimethyl-N-(2-(piperazine-1-carbonyl)pyridin-4-yl)-5-(trifluoromethyl)tetrahydrofuran-2-carboxamide]
10 to 100	COc1c([C@H]2[C@H](C(=O)Nc3ccnc(C(=O)N4CCC45CNC5)c3)O[C@@](C)(C(F)(F)F)[C@H]2C)ccc(F)c1F [Compound 225, (2R,3S,4S,5R)-N-(2-(1,6-diazaspiro[3.3]heptane-1-carbonyl)pyridin-4-yl)-3-(3,4-difluoro-2-methoxyphenyl)-4,5-dimethyl-5-(trifluoromethyl)tetrahydrofuran-2-carboxamide]
100 to 1000	COc1c([C@H]2[C@H](C(=O)Nc3ccnc(C(=O)NC[C@@H]4CC(F)(F)CN4)c3)O[C@@](C)(C(F)(F)F)[C@H]2C)ccc(F)c1F [Compound 226, 4-((2R,3S,4S,5R)-3-(3,4-difluoro-2-methoxyphenyl)-4,5-dimethyl-5-(trifluoromethyl)tetrahydrofuran-2-carboxamido)-N-(((S)-4,4-difluoropyrrolidin-2-yl)methyl)picolinamide]
< 10	COc1c([C@H]2[C@H](C(=O)Nc3ccnc(C(=O)N4C[C@H]5CCNC[C@H]54)c3)O[C@@](C)(C(F)(F)F)[C@H]2C)ccc(F)c1F [Compound 227, (2R,3S,4S,5R)-N-(2-((1S,6R)-3,8-diazabicyclo[4.2.0]octane-8-carbonyl)pyridin-4-yl)-3-(3,4-difluoro-2-methoxyphenyl)-4,5-dimethyl-5-(trifluoromethyl)tetrahydrofuran-2-carboxamide]
< 10	COc1c([C@H]2[C@H](C(=O)Nc3ccnc(C(=O)N4CC5(CNC5)C4)c3)O[C@@](C)(C(F)(F)F)[C@H]2C)ccc(F)c1F [Compound 228, (2R,3S,4S,5R)-N-(2-(2,6-diazaspiro[3.3]heptane-2-carbonyl)pyridin-4-yl)-3-(3,4-difluoro-2-methoxyphenyl)-4,5-dimethyl-5-(trifluoromethyl)tetrahydrofuran-2-carboxamide]
< 10	COc1c([C@H]2[C@H](C(=O)Nc3ccnc(C(=O)N(C)[C@@H]4CCNC4)c3)O[C@@](C)(C(F)(F)F)[C@H]2C)ccc(F)c1F [Compound 229, 4-((2R,3S,4S,5R)-3-(3,4-difluoro-2-methoxyphenyl)-4,5-dimethyl-5-(trifluoromethyl)tetrahydrofuran-2-carboxamido)-N-methyl-N-((R)-pyrrolidin-3-yl)picolinamide]
< 10	COc1c([C@H]2[C@H](C(=O)Nc3ccnc(C(=O)N4CC5(CCCN5)C4)c3)O[C@@](C)(C(F)(F)F)[C@H]2C)ccc(F)c1F [Compound 230, (2R,3S,4S,5R)-N-(2-(2,5-diazaspiro[3.4]octane-2-carbonyl)pyridin-4-yl)-3-(3,4-difluoro-2-methoxyphenyl)-4,5-dimethyl-5-(trifluoromethyl)tetrahydrofuran-2-carboxamide]
< 10	CNCCNC(=O)c1cc(NC(=O)[C@@H]2O[C@@](C)(C(F)(F)F)[C@@H](C)[C@H]2c2ccc(F)c(F)c2OC)ccn1 [Compound 231, 4-((2R,3S,4S,5R)-3-(3,4-difluoro-2-methoxyphenyl)-4,5-dimethyl-5-(trifluoromethyl)tetrahydrofuran-2-carboxamido)-N-(2-(methylamino)ethyl)picolinamide]
< 10	COc1c([C@H]2[C@H](C(=O)Nc3ccnc(C(=O)N4CCNC[C@@H]4C)c3)O[C@@](C)(C(F)(F)F)[C@H]2C)ccc(F)c1F [Compound 232, (2R,3S,4S,5R)-3-(3,4-difluoro-2-methoxyphenyl)-4,5-dimethyl-N-(2-((S)-2-methylpiperazine-1-carbonyl)pyridin-4-yl)-5-(trifluoromethyl)tetrahydrofuran-2-carboxamide]
10 to 100	COc1c([C@H]2[C@H](C(=O)Nc3ccnc(C(=O)NC[C@]4(C)CCCN4)c3)O[C@@](C)(C(F)(F)F)[C@H]2C)ccc(F)c1F [Compound 233, 4-((2R,3S,4S,5R)-3-(3,4-difluoro-2-methoxyphenyl)-4,5-dimethyl-5-(trifluoromethyl)tetrahydrofuran-2-carboxamido)-N-(((S)-2-methylpyrrolidin-2-yl)methyl)picolinamide]

SMILES	IC50 [nM]
COc1c([C@H]2[C@H](C(=O)Nc3ccnc(C(N)=O)c3)O[C@@](C)(C(F)(F)F)[C@H]2C)ccc(OC2CC(F)(F)C2)c1F [Compound 207, 4-((2R,3S,4S,5R)-3-(4-(3,3-difluorocyclobutoxy)-3-fluoro-2-methoxyphenyl)-4,5-dimethyl-5-(trifluoromethyl)tetrahydrofuran-2-carboxamido) picolinamide]	< 10
C[C@H]1[C@@H](c2cccc(C(F)(F)F)c2O[C@H]2C[C@@H](O)C2)[C@H](C(=O)Nc2ccnc(C(N)=O)c2)O[C@@]1(C)C(F)(F)F [Compound 212, 4-((2R,3S,4S,5R)-3-(2-((1s,3R)-3-hydroxycyclobutoxy)-3-(trifluoromethyl)phenyl)-4,5-dimethyl-5-(trifluoromethyl)tetrahydrofuran-2-carboxamido) picolinamide]	< 10
C[C@H]1[C@@H](c2cccc(Cl)c2O[C@H]2C[C@@H](O)C2)[C@H](C(=O)Nc2ccnc(C(N)=O)c2)O[C@@]1(C)C(F)(F)F [Compound 213, 4-((2R,3S,4S,5R)-3-(3-chloro-2-((1s,3R)-3-hydroxycyclobutoxy)phenyl)-4,5-dimethyl-5-(trifluoromethyl)tetrahydrofuran-2-carboxamido) picolinamide]	< 10
COc1c([C@H]2[C@H](C(=O)Nc3ccnc(C(=O)N4CC5CC(C4)O5)c3)O[C@@](C)(C(F)(F)F)[C@H]2C)ccc(F)c1F [Compound 218, (2R,3S,4S,5R)-N-(2-(6-oxa-3-azabicyclo[3.1.1]heptane-3-carbonyl)pyridin-4-yl)-3-(3,4-difluoro-2-methoxyphenyl)-4,5-dimethyl-5-(trifluoromethyl)tetrahydrofuran-2-carboxamide]	< 10
